Measurements: US20170119806A1, “[…] LACTONE DERIVATIVES AND METHODS OF MAKING AND USING THEREOF” (OHIO STATE INNOVATION FOUNDATION, priority 2014, published 2017)
Entries after “also recorded” stand apart in the source; their conditions may differ.

Experiments:
[1] = test system: STAT3, STAT4, STAT5, T-BET; experiment: Immunoblotting of STATs and T-BET in NK cells; format: cell-based, human; details: 5 or 10 μM PL-C, 4 h, with IL-12 or IL-15; listed as PL-C
Protocol: (A) Purified human primary NK cells were treated with 10 μM PL-C in the presence of IL-2 (10 ng/mL) or IL-15 (100 ng/mL) for 12 hours. DMSO-treated cells served as vehicle controls. Cell pellets were harvested to extract total RNA for real-time RT-PCR to determine mRINA expression levels of IL-12Rβ1, IL-12Rβ2, IL-15Rα and IL-15β. Data are shown as means of 3 donors, * and ** indicate p<0.05 and p<0.01, respectively, which denote a statistical comparison between the two marked treatment groups. Error bars represent S.D. (B, C) Purified primary NK cells (B) or NKL cells (C) were treated with 5 or 10 μM PL-C in the presence of IL-12 (10 ng/mL) or IL-15 (100 ng/mL) for 4 hours. DMSO-treated cells served as vehicle controls. Cell pellets were harvested for subsequent immunoblotting of T-BET, phosphorylated STAT3 (p-STAT3), p-STAT4, p-STAT5, STAT3, STAT4, and STAT5. Data represent 1 out of 3 donors with similar data (B) and 3 independent experiments with similar results (C). Numbers underneath each lane represent quantification of detected protein by densitometry, after normalizing to β-actin.
Immunoblotting. Immunoblotting was performed as described previously (Yu J et al. Immunity 2006, 24, 575-590; Yu J et al. Blood 2010, 115, 274-281). […]

[2] = test system: C3-3P NF-κB p65 binding site of the IFNG promoter; experiment: EMSA and ChIP of p65 binding to the IFNG promoter; format: cell-based, human; details: 10 μM PL-C with IL-12 (10 ng/mL), 12 h, ChIP
Protocol: (A) Schematic of IFNG promoter potential binding sites for p65 (45). (B) NK cells purified from healthy donors were treated with 10 μM PL-C or DMSO vehicle control in the presence of IL-12 (10 ng/mL) for 12 h. Cell pellets were harvested for nuclear extraction, followed by EMSA with a ^32P-labeled oligonucleotide containing the C3-3P NF-κB p65 binding site of the IFNG promoter. Data shown represent one of three donors with similar results. (C) Cells were treated as described in (B), and the cell pellets were harvested to extract protein for ChIP assay of p65 binding to the IFNG promoter locus C3-3P. Mean of relative association of p65 at the IFNG promoter locus C3-3P from three independent experiments is shown. *p<0.05, compared with cells treated with IL-12 alone. Error bars represent S.D.
EMSA. Nuclear extracts were isolated using a nuclear extract kit, according to the manufacturer's instruction (Active Motif, Carlsbad, Calif.). EMSA was performed as described previously (Bachmeyer C et al. Nucleic Acids Res, 1999, 27, 643-648). […]
Chromatin immunoprecipitation. […] DNA precipitated by the anti-p65 or the normal IgG Abs was quantified by real-time PCR, and values were normalized to input DNA.

COc1cc2c(OC3OCC(O)C(O)C3O)c3c(c(-c4ccc5c(c4)OCO5)c2cc1OC)C(=O)OC3 (centres unmarked) [Compound 4, Phyllanthusmin C]
total or phosphorylated STAT3, STAT4, STAT5 and T-BET in NK or NKL cells [1]: No upregulation; also recorded: no significant change of T-BET
p65 binding to the C3-3P site of the IFNG promoter [2]: enhanced p65 binding to the C3-3P binding site
